Reference: patent US8536178B2, “Pharmaceutical composition for preventing or treating diseases associated with beta-amyloid accumulation containing morpholin or piperazine based compounds having SO3H or COOH as active ingredient” (Korea Institute of Science and Technology, priority 2009, dated 2013)

Tests used:
Aβ40 fibril = molecular target: T1, Aβ40 fibril (Homo sapiens, UniProt P05067); experiment: Accumulated beta-amyloid disaggregation activity by thioflavin T (ThT) fluorescence intensity, Aβ40; type: biochemical; settings: Aβ40 50 μM, compound 20 mM
T1 construct: beta-amyloids 40 and 42 consisting of 40 and 42 amino acids
Procedure: (§1) In order to measure the disaggregation activity of the beta-amyloid aggregate of a compound according to the present invention, the following experiment was performed using thioflavin T (ThT) fluorescence intensity.
(§2) Thioflavin T (ThT) is well mixed with fibril which is a beta-amyloid aggregate in a solution and tends to increase the fluorescence intensity as the concentration of fibril increases.
(§3) For aggregation of beta-amyloid, a beta-amyloid stock solution was prepared. The beta-amyloid stock solutions were prepared in a DMSO solution such that Aβ40 or Aβ42 might have a concentration of 5 mM and 2.5 mM, respectively, and diluted in distilled water by 10 times to prepare Aβ40 and Aβ42 at a final concentration of 500 μM and 250 μM, respectively. It was cultured at 37° C. for 7 to 10 days to prepare a sufficient amount of beta-amyloid aggregate. Subsequently, compounds of chemical formula 1a to 1e according to the present invention or distilled water were again added into each accumulated beta-amyloid to obtain 10-times diluted solutions, and then they were cultured at 37° C. for 7 days. Distilled water was used as a control group. The final concentration of the compound was 20 mM, and the final concentrations of beta-amyloid Aβ40 or Aβ42 were 50 μM and 25 μM, respectively. After distilled water or the compound was added, 25 μl of each reaction solution on 0th, 3rd, and 7th day was aliquoted into each well, into which was added 75 μl of thioflavin T (ThT) to have thioflavin T (ThT) at a concentration of 5 μM. It was cultured for additional 15 minutes, and then the fluorescence intensity of a half well 96 fluorescence microplate was measured by Envision 2103 multilabel reader, Perkin-Elmer. During the measurement of fluorescence intensity, the wavelengths of excitation and emission were 450 nm and 485 nm, respectively and the counting time was 0.5 sec. […]

Aβ42 fibril = molecular target: T2, Aβ42 fibril (Homo sapiens, UniProt P05067); experiment: Accumulated beta-amyloid disaggregation activity by thioflavin T (ThT) fluorescence intensity, Aβ42; type: biochemical; settings: Aβ42 25 μM, compound 20 mM
T2 construct: beta-amyloids 40 and 42 consisting of 40 and 42 amino acids
Procedure: as §1, §2, §3

[1] = molecular target: T3, beta-amyloid 40 aggregate (Homo sapiens, UniProt P05067); experiment: Beta-amyloid fibril disaggregation activity by electronic microscope, Aβ40; type: biochemical; settings: Aβ40 50 μM, compound 20 mM, 3rd and 7th days, FIG. 6
T3 construct: beta-amyloids 40 and 42 consisting of 40 and 42 amino acids
Procedure: (§4) In order to measure accumulated beta-amyloid disaggregation activity of a compound according to the present invention, the following experiment was performed using electronic microscope.
(§5) A beta-amyloid stock solution was prepared such that Aβ40 or Aβ42 might have a concentration of 5 mM and 2.5 mM, respectively, and diluted in distilled water by 10 times to prepare Aβ40 and Aβ42 at a final concentration of 500 μM and 250 μM, respectively. It was cultured at 37° C. for 7 to 10 days to prepare a sufficient amount of beta-amyloid aggregate. Subsequently, compounds of chemical formula 1a to 1e according to the present invention or distilled water were again added into each accumulated beta-amyloid to obtain 10-times diluted solutions, and then it was cultured at 37° C. for 7 days. Distilled water was used as a control group. The final concentration of the compound was 20 mM, and the final concentrations of beta-amyloid Aβ40 or Aβ42 were 50 μM and 25 μM, respectively. Subsequently, a compound of chemical formula 1a was added, and then the mixture was cultured at 37° C. for 7 days. From each of the reaction solutions on 0th, 3rd, and 7th days after addition of distilled water or the compound, the accumulations and disaggregation degrees of accumulated beta-amyloid were observed using analytical transmission electron microscope. […]

accumulated Aβ42 = molecular target: T4, accumulated Aβ42 (Homo sapiens, UniProt P05067); experiment: Beta-amyloid fibril disaggregation activity by SDS-PAGE, Aβ42; type: biochemical; settings: Aβ42 25 μM, compound 20 mM, 3rd and 7th day, photo-induced cross-linking, silver staining
T4 construct: beta-amyloids 40 and 42 consisting of 40 and 42 amino acids
Procedure: (§6) In order to measure the accumulated beta-amyloid disaggregation activity of a compound according to the present invention, the following experiment was performed using SDS-PAGE.
(§7) When peptides or proteins are subjected to electrophoresis on an SDS gel, the secondary structures of the proteins are broken. Thus, it is necessary to cross-link the proteins and immobilize their structures. It is achieved by a photo-induced cross-linking such that the structure of accumulated beta-amyloid may not be dismissed during electrophoresis on SDS gel. Specifically, a beta-amyloid stock solution was prepared in a DMSO solution such that Aβ40 or Aβ42 may have a concentration of 5 mM or 2.5 mM, and was […] by 10 times using distilled water to prepare Aβ40 and Aβ42 at a concentration of 500 μM and 250 μM, respectively. It was cultured at 37° C. for 7 to 10 days to prepare a sufficient amount of beta-amyloid aggregate. Subsequently, compounds of chemical formula 1a to 1e according to the present invention or distilled water were again added into each accumulated beta-amyloid to obtain 10-times diluted solutions, and then they were cultured at 37° C. for 7 days. Distilled water was used as a control group. The final concentration of the compound was 20 mM, and the final concentrations of beta-amyloid Aβ40 or Aβ42 were 50 μM and 25 μM, respectively. […]

[2] = molecular target: T5, beta-amyloid 42 aggregate (Homo sapiens, UniProt P05067); experiment: Beta-amyloid fibril disaggregation activity by electronic microscope, Aβ42; type: biochemical; settings: Aβ42 25 μM, compound 20 mM, 3rd and 7th days, FIG. 7
T5 construct: beta-amyloids 40 and 42 consisting of 40 and 42 amino acids
Procedure: as §4, §5

accumulated Aβ40 = molecular target: T6, accumulated Aβ40 (Homo sapiens, UniProt P05067); experiment: Beta-amyloid fibril disaggregation activity by SDS-PAGE, Aβ40; type: biochemical; settings: Aβ40 50 μM, compound 20 mM, 3rd and 7th day, photo-induced cross-linking, silver staining
T6 construct: beta-amyloids 40 and 42 consisting of 40 and 42 amino acids
Procedure: as §6, §7

[3] = tested on: HT-22 cells treated with Aβ40; experiment: Cell viability (MTT) on beta-amyloid toxicity, Aβ40; type: cell-based, rat; settings: HT-22, Aβ40 2 μM pre-treated with compound, 24 hours, untreated cells = 100%, FIG. 8 (a)
Procedure: (§8) In order to determine the cell survival rate of a compound according to the present invention on beta-amyloid toxicity, the following example was performed.
(§9) In order to obtain beta-amyloid aggregates, a beta-amyloid stock solution was prepared. The beta-amyloid stock solutions were prepared in a DMSO solution such that Aβ40 or Aβ42 might have a concentration of 5 mM and 2.5 mM, respectively, and diluted in distilled water by 10 times to prepare Aβ40 and Aβ42 at a final concentration of 500 μM and 250 μM, respectively. Distilled water added to each solution to culture a 10 times diluted beta-amyloid at 37° C. for 7 to 10 days. Subsequently, compounds of chemical formula 1a to 1e according to the present invention or distilled water were again added into each beta-amyloid to obtain 10-times diluted solutions, and then it was cultured at 37° C. for 7 days. Distilled water was used as a control group instead of the compound. […] The cytotoxicity of the reaction solutions on 0th, 3rd, and 7th days after addition of distilled water or the compound was measured using the following cell line.
(§10) HT-22, a neuronal cell line of a rat, was cultured in DMEM (Dulbecco's Modified Eagle's Medium) supplemented with 10% FBS (Fetal Bovine Serum) and 1% penicillin/streptomycin in an incubator of 37° C. and 5% CO2. […] 18 hours later, the optical absorption was determined at 570 nm by a microplate reader. […]

HT-22 cells = experiment: Cytotoxicity of the compound alone (MTT); type: cell-based, rat; settings: HT-22, without any treatment of beta-amyloid, untreated cells = 100%
[4] = tested on: HT-22 cells treated with Aβ42; experiment: Cell viability (MTT) on beta-amyloid toxicity, Aβ42; type: cell-based, rat; settings: HT-22, Aβ42 1 μM pre-treated with compound, 24 hours, untreated cells = 100%, FIG. 8 (b)
Procedure: as §8, §9, §10

Aβ40 = molecular target: T7, Aβ40 (Homo sapiens, UniProt P05067); experiment: Beta-amyloid accumulation inhibitory activity by thioflavin T (ThT) fluorescence intensity; type: biochemical; settings: Aβ40 50 μM, compound 20 mM (test compound: chemical formula 1a), 37° C., 0th to 7th day, FIG. 1
T7 construct: beta-amyloids 40 and 42 consisting of 40 and 42 amino acids
Procedure: In order to measure the beta-amyloid accumulation inhibitory activity of a compound according to the present invention, the following experiment was performed using thioflavin T (ThT) fluorescence intensity.
Thioflavin T (ThT) is well mixed with fibril which is a beta-amyloid aggregate in a solution and tends to increase the shifted fluorescence intensity as the concentration of fibril increases.
A solution was prepared in a DMSO solution such that Aβ40 might have a concentration of 5 mM, and diluted in a compound of chemical formula 1a by 100 times to prepare Aβ40 at a final concentration of 50 μM. The concentration of the compound was 20 mM. Tramiprosate was used as a control group. Tramiprosate is a compound known to treat Alzheimer's disease and related diseases by inhibiting the accumulation of beta-amyloid (F. Gervais, J. et al. (2007)). Subsequently, it was cultured at 37° C. for 7 days. […] It was cultured for additional 15 minutes, and then the fluorescence intensity of a half well 96 fluorescence microplate was measured by Envision 2103 multilabel reader, Perkin-Elmer. During the measurement of fluorescence intensity, the wavelengths of excitation and emission were 450 nm and 485 nm, respectively and the counting time was 0.5 sec.

T2 sequence (P05067 672-713 limits assumed): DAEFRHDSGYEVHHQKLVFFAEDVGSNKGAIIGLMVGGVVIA
T1 sequence (P05067 672-711 limits assumed): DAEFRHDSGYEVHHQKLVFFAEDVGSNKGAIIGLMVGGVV
T4 sequence (P05067 672-713 limits assumed): as the sequence (P05067 672-713 limits assumed) above
T5 sequence (P05067 672-713 limits assumed): as above
T6 sequence (P05067 672-711 limits assumed): as the sequence (P05067 672-711 limits assumed) above
T7 sequence (P05067 672-711 limits assumed): as above
T3 sequence (P05067 672-711 limits assumed): as above

For O=S(=O)(O)CC(O)CN1CCN(CCO)CC1 (centres unmarked) [chemical formula 2, HEPPSO], which “disaggregation activity to the beta-amyloid aggregate (ThT)” value (Aβ40 fibril) is on record?
Its value is “does not exhibit any disaggregation activity”.

And the “ThT fluorescence intensity compared to initially prepared aggregates (prefibrils)” value (Aβ40 fibril; 37° C., up to 7 days)?
Its value is “increased”.

What about the “disaggregation activity to the beta-amyloid aggregate (ThT)” value (Aβ42 fibril) of the same molecule?
Its value is “does not exhibit any disaggregation activity”.

And the “ThT fluorescence intensity compared to initially prepared aggregates (prefibrils)” value (Aβ42 fibril; 37° C., up to 7 days)?
The value was “increased”.

For O=S(=O)(O)CCCN1CCN(CCO)CC1 [chemical formula 1a], which “beta-amyloid fibrils in transmission electron microscope images” value [1] is on record?
Its value is “no beta-amyloid fibrils appeared on 3rd and 7th days”.

What about the “disaggregation of accumulated beta-amyloid into monomers (SDS-PAGE band near 3.5 kD)” value (accumulated Aβ42) of the same molecule?
The value was “disaggregated into monomers”.

What about the “beta-amyloid fibrils in transmission electron microscope images” value [2] of the same molecule?
The value was “no beta-amyloid fibrils appeared on 3rd and 7th days”.

What about the “disaggregation of accumulated beta-amyloid into monomers (SDS-PAGE band near 3.5 kD)” value (accumulated Aβ40) of the same molecule?
The value was “disaggregated into monomers”.

What about the “course of ThT fluorescence intensity over time” value (Aβ40 fibril; 0th, 3rd, 7th day, FIG. 2 (a)) of the same molecule?
Its value is “increased over time”.

And the “course of ThT fluorescence intensity over time” value (Aβ42 fibril; 0th, 3rd, 7th day, FIG. 2 (b))?
Its value is “increased over time”.

What about the cell viability [3] of the same molecule?
Its cell viability is ≥ 95%.

What about the “cell viability, compound only” value (HT-22 cells) of the same molecule?
The value was ≥ 95%.

And the cell viability [4]?
The cell viability was ≥ 95%.

NCCCS(=O)(=O)O [tramiprosate, Tramiprosate] was tested. Which “increase of ThT fluorescence intensity” value (Aβ40) did it give?
Its value is “about 3.5 times”.
